Laboratory results: article PMC8867545 (ACS Omega, 2022)

Experiments:
[1] = tested on: β-glucosidase (β-Glcase); assay: UV-vis absorption at […] nm, Lineweaver-Burk; format: biochemical, Prunus dulcis; conditions: 1x PBS pH 5.33, room temperature, 100 μg/mL enzyme, 5-200 μM substrate
[2] = tested on: β-glucosidase (β-Glcase); assay: UV-vis absorption at […] nm, Lineweaver-Burk; format: biochemical, Prunus dulcis; conditions: 1x PBS pH 5.33, room temperature, 100 μg/mL enzyme, 10-500 μM substrate

Row | Structure (SMILES) | Km [1] [µM] | Km [2] [µM]
1 | N#Cc1ccc(S[C@@H]2O[C@H](CO)[C@@H](O)[C@H](O)[C@H]2O)nc1 [Glc-p-MPN] | 162 | –
2 | N#Cc1cccnc1S[C@@H]1O[C@H](CO)[C@@H](O)[C@H](O)[C@H]1O [Glc-o-MPN] | – | 228
